Patent US20160355475A1, “NOVEL INDOLE DERIVATIVE COMPOUND AND PHARMACEUTICAL COMPOSITION COMPRISING THE SAME” (CHONG KUN DANG PHARMACEUTICAL CORP., priority 2014, published 2016)
pIC50: −log10 of the molar value.

Legend:
HDAC6 human recombinant = target: T1, HDAC6 human recombinant (Homo sapiens, UniProt Q9UBN7); experiment: HDAC6 enzyme activity inhibition (fluorimetric, in vitro); assay type: biochemical; conditions: 37° C., 60 minutes; tested at 0.1, 1, 10, 100 and 1000 nM
T1 construct: purchased Calbiochem 382180
T1 sequence (Q9UBN7 1-1215): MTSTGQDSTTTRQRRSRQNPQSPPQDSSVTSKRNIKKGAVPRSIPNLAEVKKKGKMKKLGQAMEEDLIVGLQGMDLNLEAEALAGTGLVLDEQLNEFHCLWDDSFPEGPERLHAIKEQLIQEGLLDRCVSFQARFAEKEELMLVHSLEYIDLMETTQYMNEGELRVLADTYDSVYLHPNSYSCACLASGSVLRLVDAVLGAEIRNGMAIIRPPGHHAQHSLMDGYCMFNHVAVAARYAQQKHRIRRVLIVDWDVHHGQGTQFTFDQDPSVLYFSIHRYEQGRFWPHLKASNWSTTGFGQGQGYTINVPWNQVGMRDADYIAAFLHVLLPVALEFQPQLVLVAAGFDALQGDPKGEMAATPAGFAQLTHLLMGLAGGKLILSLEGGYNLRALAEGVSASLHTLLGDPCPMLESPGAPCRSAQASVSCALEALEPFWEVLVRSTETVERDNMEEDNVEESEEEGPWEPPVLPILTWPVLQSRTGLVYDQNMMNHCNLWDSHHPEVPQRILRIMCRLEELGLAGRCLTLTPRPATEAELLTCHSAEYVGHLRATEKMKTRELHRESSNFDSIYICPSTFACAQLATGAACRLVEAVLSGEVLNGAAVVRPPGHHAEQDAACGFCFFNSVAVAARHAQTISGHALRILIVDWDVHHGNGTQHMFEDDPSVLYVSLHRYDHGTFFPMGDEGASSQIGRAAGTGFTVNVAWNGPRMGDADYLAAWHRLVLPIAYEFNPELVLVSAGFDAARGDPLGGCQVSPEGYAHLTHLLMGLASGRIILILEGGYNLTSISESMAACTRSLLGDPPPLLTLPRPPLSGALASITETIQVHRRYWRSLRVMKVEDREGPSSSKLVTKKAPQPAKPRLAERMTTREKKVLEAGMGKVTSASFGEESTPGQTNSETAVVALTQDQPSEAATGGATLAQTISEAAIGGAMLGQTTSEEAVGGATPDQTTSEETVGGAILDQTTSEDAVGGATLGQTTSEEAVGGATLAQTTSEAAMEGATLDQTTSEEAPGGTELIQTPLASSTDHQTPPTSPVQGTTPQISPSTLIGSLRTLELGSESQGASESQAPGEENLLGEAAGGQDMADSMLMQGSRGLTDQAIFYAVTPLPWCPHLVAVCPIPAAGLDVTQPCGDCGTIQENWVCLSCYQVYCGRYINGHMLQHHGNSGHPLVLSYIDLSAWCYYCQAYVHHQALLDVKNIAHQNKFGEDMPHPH
Protocol: (§1) 1. Experiment on Activities in HDAC Enzymes (HDAC1 and HDAC6)
(§2) Assays were performed using a HDAC1 fluorimetric drug discovery assay kit (Enzolifesciences: BML-AK511) and a HDAC6 human recombinant (Calbiochem: 382180). The assay mixture of the kit was treated with each of the compounds of the Examples at concentrations 100, 1000 and 10000 nM for HDAC1 assay and 0.1, 1, 10, 100 and 1000 nM for HDAC6 assay. The treated assay mixture was allowed to react at 37° C. for 60 minutes, and then was treated with a developer and allowed to stand at 37° C. for 30 minutes, followed by quantification of the fluorescence. In Table 17, lower HDAC6 values (μM) indicate higher HDAC6 inhibitory activities of the compounds. Also, because selective HDAC6 inhibitors should not inhibit HDAC1 (μM), higher HDAC1 values indicate higher HDAC6 selectivity of the compounds.

HDAC1 = target: T2, HDAC1 (Homo sapiens, UniProt Q13547); experiment: HDAC1 enzyme activity inhibition (HDAC1 fluorimetric drug discovery assay kit); assay type: biochemical; conditions: 37° C., 60 minutes; tested at 100, 1000 and 10000 nM
T2 construct: purchased Enzolifesciences BML-AK511
T2 sequence (Q13547 whole entry): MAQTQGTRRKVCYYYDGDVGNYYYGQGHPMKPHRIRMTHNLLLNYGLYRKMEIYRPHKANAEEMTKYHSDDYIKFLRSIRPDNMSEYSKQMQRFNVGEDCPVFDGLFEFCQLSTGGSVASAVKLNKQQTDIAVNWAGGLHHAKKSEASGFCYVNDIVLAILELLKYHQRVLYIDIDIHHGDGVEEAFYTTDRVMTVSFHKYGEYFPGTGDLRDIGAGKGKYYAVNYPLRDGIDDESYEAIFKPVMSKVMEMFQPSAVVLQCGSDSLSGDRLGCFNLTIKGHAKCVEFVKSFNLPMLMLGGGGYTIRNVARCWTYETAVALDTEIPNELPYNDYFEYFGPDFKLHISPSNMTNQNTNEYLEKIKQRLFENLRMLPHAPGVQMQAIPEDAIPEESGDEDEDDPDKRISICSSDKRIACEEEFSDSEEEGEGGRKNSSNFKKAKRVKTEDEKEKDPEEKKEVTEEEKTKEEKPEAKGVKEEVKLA
Protocol: as §1, §2

Row | SMILES | pIC50 (HDAC6 human recombinant) | pIC50 (HDAC1)
1 | CCCc1c(Cc2ccc(C(=O)NO)cc2)c2ccccc2n1CC1CCN(CC(C)(C)O)CC1 [Compound 601, N-hydroxy-4-((1-((1-(2-hydroxy-2-methylpropyl)piperidin-4-yl)methyl)-2-propyl-1H-indol-3-yl)methyl)benzamide] | 7.01 | 5.25
2 | Cc1c(Cc2ccc(C(=O)NO)cc2)c2ccccc2n1CC1CCN(Cc2ccccn2)CC1 [Compound 623, N-hydroxy-4-((2-methyl-1-((1-(pyridin-2-ylmethyl)piperidin-4-yl)methyl)-1H-indol-3-yl)methyl)benzamide] | 7.55 | 5.83
3 | Cc1c(Cc2ccc(C(=O)NO)cc2)c2ccccc2n1CC1CCN(Cc2cc(F)c(F)cc2F)CC1 [Compound 619, N-hydroxy-4-((2-methyl-1-((1-(2,4,5-trifluorobenzyl)piperidin-4-yl)methyl)-1H-indol-3-yl)methyl)benzamide] | 6.11 | < 5.00
4 | Cc1c(Cc2ccc(C(=O)NO)cc2)c2cc(F)ccc2n1CC1CCN(CC(C)(C)F)CC1 [Compound 588, 4-((5-Fluoro-1-((1-(2-fluoro-2-methylpropyl)piperidin-4-yl)methyl)-2-methyl-1H-indol-3-yl)methyl)-N-hydroxybenzamide] | 6.42 | 5.17
5 | Cc1c(Cc2ccc(C(=O)NO)cc2)c2ccccc2n1CC1CCN(Cc2cccc(F)c2)CC1 [Compound 631, 4-((1-((1-(3-Fluorobenzyl)piperidin-4-yl)methyl)-2-methyl-1H-indol-3-yl)methyl)-N-hydroxybenzamide] | 5.87 | < 5.00
6 | O=C(NO)c1ccc(Cc2c(CN3CCOCC3)[nH]c3ccccc23)cc1 [Compound 155, N-hydroxy-4-((2-(morpholinomethyl)-1H-indol-3-yl)methyl)benzamide] | 7.62 | 5.41
7 | Cc1c(Cc2ccc(C(=O)NO)cc2)c2ccccc2n1CC1CCN(CC2(F)CCN(C(=O)NC(C)C)CC2)CC1 [Compound 695, 4-Fluoro-4-((4-((3-(4-(hydroxycarbamoyl)benzyl)-2-methyl-1H-indol-1-yl)methyl)piperidin-1-yl)methyl)-N-isopropylpiperidine-1-carboxamide] | 7.62 | –
8 | Cc1c(Cc2ccc(C(=O)NO)cc2)c2ccccc2n1CC1CCN(CCc2ccccc2)CC1 [Compound 559, N-hydroxy-4-((2-methyl-1-((1-phenethylpiperidin-4-yl)methyl)-1H-indol-3-yl)methyl)benzamide] | 6.56 | –
9 | Cc1c(Cc2ccc(C(=O)NO)cc2)c2ccccc2n1CC1CCN(CC2(F)CCNCC2)CC1 [Compound 611, 4-((1-((1-((4-fluoropiperidin-4-yl)methyl)piperidin-4-yl)methyl)-2-methyl-1H-indol-3-yl)methyl)-N-hydroxybenzamide] | 7.62 | 5.53
10 | Cc1c(Cc2ccc(C(=O)NO)cc2)c2ccccc2n1CCN1CCCCC1 [Compound 585] | 7.08 | 5.11
11 | Cc1c(Cc2ccc(C(=O)NO)cn2)c2ccccc2n1CCN1CCN(C)CC1 [Compound 243, N-hydroxy-6-((2-methyl-1-(2-(4-methylpeperazin-1-yl)ethyl)-1H-indol-3-yl)methyl)nicotinamide] | 6.47 | –
12 | Cc1c(Cc2ccc(C(=O)NO)cc2)c2ccccc2n1CC1CN(CC(C)(C)F)C1 [Compound 750, 4-((1-((1-(2-Fluoro-2-methylpropyl)azetidin-3-yl)methyl)-2-methyl-1H-indol-3-yl)methyl)-N-hydroxybenzamide] | 6.94 | –
13 | Cc1c(Cc2ccc(C(=O)NO)cn2)c2ccccc2n1CCN1CCOCC1 [Compound 244, N-hydroxy-6-((2-methyl-1-(2-morpholinoethyl)-1H-indol-3-yl)methyl)nocotinamide] | 6.63 | –
14 | Cc1c(Cc2ccc(C(=O)NO)cc2)c2ccccc2n1CCN1CCCC(F)C1 (stereo not shown) [Compound 550, 4-((1-(2-(3-fluoropiperidin-1-yl)ethyl)-2-methyl-1H-indol-3-yl)methyl)-N-hydroxybenzamide] | 7.17 | –
15 | Cc1c(Cc2ccc(C(=O)NO)cc2F)c2ccccc2n1CC1CCN(CC(C)(C)F)CC1 [Compound 562, 3-Fluoro-4-((1-((1-(2-fluoro-2-methylpropyl)piperidin-4-yl)methyl)-2-methyl-1H-indol-3-yl)methyl)-N-hydroxybenzamide] | 7.06 | –
16 | Cc1c(Cc2ccc(C(=O)NO)cc2)c2ccccc2n1CC1CCN(Cc2ccncc2)CC1 [Compound 621, N-hydroxy-4-((2-methyl-1-((1-(pyridin-4-ylmethyl)piperidin-4-yl)methyl)-1H-indol-3-yl)methyl)benzamide] | 7.05 | –
17 | CC(C)(F)CN1CCC(Cn2cc(Cc3ccc(C(=O)NO)cc3)c3ccc(F)cc32)CC1 [Compound 708, 4-((6-Fluoro-1-((1-(2-fluoro-2-methylpropyl)piperidin-4-yl)methyl)-1H-indol-3-yl)methyl)-N-hydroxybenzamide] | 6.36 | –
18 | Cc1c(Cc2ccc(C(=O)NO)cc2)c2ccccc2n1CC1CCN(Cc2ccc(F)cc2)CC1 [Compound 622, 4-((1-((1-(4-Fluorobenzyl)piperidin-4-yl)methyl)-2-methyl-1H-indol-3-yl)methyl)-N-hydroxybenzamide] | 7.05 | –
19 | Cc1c(Cc2ccc(C(=O)NO)cc2)c2ccccc2n1CCN1CCC[C@H]1CF [Compound 551, (S)-4-((1-(2-(2-(fluoromethyl)pyrrolidin-1-yl)ethyl)-2-methyl-1H-indol-3-yl)methyl)-N-hydroxybenzamide] | 7.09 | –
20 | CC(C)(F)CN1CCC(Cn2cc(Cc3ccc(C(=O)NO)cc3)c3ccccc32)CC1 [Compound 614, 4-((1-((1-(2-Fluoro-2-methylpropyl)piperidin-4-yl)methyl)-1H-indol-3-yl)methyl)-N-hydroxybenzamide] | 6.82 | –
21 | Cc1c(Cc2ccc(C(=O)NO)cc2)c2ccccc2n1CC1CCN(Cc2ccccc2)CC1 [Compound 556, 4-((1-((1-Benzylpiperidin-4-yl)methyl)-2-methyl-1H-indol-3-yl)methyl)-N-hydroxybenzamide] | 6.97 | –
22 | Cc1c(Cc2ccc(C(=O)NO)cc2)c2ccccc2n1CC1CCN(CC2(F)CCOCC2)CC1 [Compound 584, 4-((1-((1-((4-Fluoro-tetrahydro-2H-pyran-4-yl)methyl)piperidin-4-yl)methyl)-2-methyl-1H-indol-3-yl)methyl)-N-hydroxybenzamide] | 8.15 | –
23 | CC(C)(F)CN1CCC(Cn2c(C3=CCOCC3)c(Cc3ccc(C(=O)NO)cc3)c3ccccc32)CC1 [Compound 627, 4-((2-(3,6-Dihydro-2H-pyran-4-yl)-1-((1-(2-fluoro-2-methylpropyl)piperidin-4-yl)methyl)-1H-indol-3-yl)methyl)-N-hydroxybenzamide] | 6.45 | –
24 | Cc1c(Cc2ccc(C(=O)NO)cc2)c2ccccc2n1CCC1CCN(CC(C)(C)F)CC1 [Compound 563, 4-((1-(2-(1-(2-Fluoro-2-methylpropyl)piperidin-4-yl)ethyl)-2-methyl-1H-indol-3-yl)methyl)-N-hydroxybenzamide] | 6.51 | –
25 | CC(C)(F)CN1CCC(Cn2cc(Cc3ccc(C(=O)NO)cc3)c3c(F)cccc32)CC1 [Compound 707, 4-((4-Fluoro-1-((1-(2-fluoro-2-methylpropyl)piperidin-4-yl)methyl)-1H-indol-3-yl)methyl)-N-hydroxybenzamide] | 6.77 | –
26 | CC(C)(F)CN1CCC(Cn2c(-c3ccccc3)c(Cc3ccc(C(=O)NO)cc3)c3ccccc32)CC1 [Compound 616, 4-((1-((1-(2-Fluoro-2-methylpropyl)piperidin-4-yl)methyl)-2-phenyl-1H-indol-3-yl)methyl)-N-hydroxybenzamide] | 6.09 | –
